The record followed here is PubChem BioAssay AID192 (DTP/NCI, 2004).

The assay concerns BDF1 mice, B16 melanoma ip, median survival T/C. The experiment in a line: NCI In Vivo Anticancer Drug Screen. Data for tumor model B16 Melanoma (intraperitoneal) in B6D2F1 (BDF1) mice. Particulars: endpoint: median survival time, higher = longer survival. In short, it runs like this:
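In this screen, activity was judged from survival or tumor size in treated versus vehicle-treated tumor-bearing mice, reported as T/C.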

The mark [1] stands for this setting: dose: 25.0 mg/kg/injection, schedule: Q01DX009 (ip), vehicle: saline with Tween-80.
[2] abbreviates: dose: 50.0 mg/kg/injection, schedule: Q01DX009 (ip), vehicle: saline with Tween-80.
The mark [3] stands for this setting: dose: 100.0 mg/kg/injection, schedule: Q01DX009 (ip), vehicle: saline with Tween-80.
Where [4] appears, read: dose: 100.0 mg/kg/injection, schedule: Q01DX009 (ip), vehicle: Klucel (hydroxypropylcellulose) (HPC).
Where [5] appears, read: dose: 200.0 mg/kg/injection, schedule: Q01DX009 (ip), vehicle: Klucel (hydroxypropylcellulose) (HPC).
Where [6] appears, read: dose: 400.0 mg/kg/injection, schedule: Q01DX009 (ip), vehicle: Klucel (hydroxypropylcellulose) (HPC).
[7] abbreviates: dose: 25.0 mg/kg/injection, schedule: Q01DX009 (ip), vehicle: saline.
Where [8] appears, read: dose: 50.0 mg/kg/injection, schedule: Q01DX009 (ip), vehicle: saline.
[9] abbreviates: dose: 100.0 mg/kg/injection, schedule: Q01DX009 (ip), vehicle: saline.
Where [10] appears, read: dose: 50.0 mg/kg/injection, schedule: Q01DX009 (ip), vehicle: Klucel (hydroxypropylcellulose) (HPC).
Setting [11] is: dose: 3.13 mg/kg/injection, schedule: Q01DX009 (ip), vehicle: saline.
[12] abbreviates: dose: 12.5 mg/kg/injection, schedule: Q01DX009 (ip), vehicle: saline.

Values joined by “and” are separate entries in the source; they are usually repeats but may differ in a detail not shown here. Equal values may be shown once. Toxic doses and inconclusive results are not listed.

Regarding `Cc1cccc(NC(=O)c2ccccc2)c1C`, the T/C is, setting by setting: under setting [1], 99 % of control; under setting [2], 99 % of control; under setting [3], 93 % of control.

Consider `O=CNC(c1ccccc1)(c1ccccc1)c1ccccc1`, for which the T/C reads like this: under setting [4], 97 % of control; under setting [5], 94 % of control; under setting [6], 94 % of control.

Consider `Cc1cc(Cl)ccc1NC(=O)Nc1ccccc1Cl`, for which the T/C reads like this: (dose: 18.8 mg/kg/injection, schedule: Q01DX009 (ip), vehicle: Klucel (hydroxypropylcellulose) (HPC)) 104 % of control; (dose: 37.5 mg/kg/injection, schedule: Q01DX009 (ip), vehicle: Klucel (hydroxypropylcellulose) (HPC)) 91 % of control; (dose: 75.0 mg/kg/injection, schedule: Q01DX009 (ip), vehicle: Klucel (hydroxypropylcellulose) (HPC)) 94 % of control.

As to `COc1cc2cc(c1Cl)N(C)C(=O)CC(OC(=O)CC(C)C)C1(C)OC1C(C)C1CC(O)(NC(=O)O1)C(OC)/C=C/C=C(C)C2` (stereo not given), the T/C is 122 % of control (dose: 3.1 micrograms/kg/injection, schedule: Q01DX009 (ip), vehicle: saline + alcohol); 150 % of control and 160 % of control (dose: 6.25 micrograms/kg/injection, schedule: Q01DX009 (ip), vehicle: saline + alcohol); 157 % of control and 169 % of control and 173 % of control (dose: 12.5 micrograms/kg/injection, schedule: Q01DX009 (ip), vehicle: saline + alcohol); 170 % of control (dose: 15.0 micrograms/kg/injection, schedule: Q01DX009 (ip), vehicle: saline + alcohol); 164 % of control and 168 % of control and 183 % of control (dose: 25.0 micrograms/kg/injection, schedule: Q01DX009 (ip), vehicle: saline + alcohol); 179 % of control (dose: 30.0 micrograms/kg/injection, schedule: Q01DX009 (ip), vehicle: saline + alcohol). Also, the T/C is 163 % of control (dose: 50.0 micrograms/kg/injection, schedule: Q01DX009 (ip), vehicle: saline + alcohol) and 191 % of control (dose: 60.0 micrograms/kg/injection, schedule: Q01DX009 (ip), vehicle: saline + alcohol).

In the case of `CN(C)c1ccc(C(=C2C=CC(=[N+](C)C)C=C2)c2ccc(N(C)C)cc2)cc1` (tested in a mixture with another compound), the T/C (dose: 0.31 mg/kg/injection, schedule: Q01DX009 (ip), vehicle: saline with Tween-80) was 123 % of control; the T/C (dose: 0.62 mg/kg/injection, schedule: Q01DX009 (ip), vehicle: saline with Tween-80) was 109 % of control; the T/C (dose: 1.25 mg/kg/injection, schedule: Q01DX009 (ip), vehicle: saline with Tween-80) is 104 % of control; the T/C (dose: 2.5 mg/kg/injection, schedule: Q01DX009 (ip), vehicle: saline with Tween-80) is 116 % of control.

For `NCOC(=O)Cc1ccc(Br)cc1`, the T/C under setting [4] was 97 % of control, the T/C under setting [5] was 97 % of control and the T/C under setting [6] is 89 % of control.

Take `O=C(O)C1CC[N-]CC1.O=C(O)C1CC[N-]CC1.O=C(O)C1CC[N-]CC1.O=C(O)C1CC[N-]CC1.[Cl][Rh][Cl]`: the T/C runs as follows: under setting [7], 104 % of control; under setting [8], 94 % of control; under setting [9], 102 % of control.

Turning to `CC1(C)SC(C(NC(=O)COc2ccccc2)C(=O)O)NC1C(=O)O` (stereo not given), the T/C under setting [10] was 107 % of control, the T/C under setting [4] is 110 % of control and the T/C under setting [5] was 105 % of control.

Take `C/C=C\C#N`: the T/C is 107 % of control under setting [8] and 107 % of control under setting [9].

With `Cc1cc(O)c2c(c1O)C(=O)c1cccc(O)c1C2=O`, the T/C runs as follows: (dose: 0.75 mg/kg/injection, schedule: Q01DX009 (ip), vehicle: Klucel (hydroxypropylcellulose) (HPC)) 92 % of control; (dose: 1.5 mg/kg/injection, schedule: Q01DX009 (ip), vehicle: Klucel (hydroxypropylcellulose) (HPC)) 87 % of control.

Take `COc1ccc(CCNC(=S)NCCc2ccc(OC)c(OC)c2)cc1OC`: the T/C under setting [4] was 86 % of control, the T/C under setting [5] was 92 % of control and the T/C under setting [6] was 115 % of control.

Turning to `Cc1c(N=O)c(=O)n(-c2ccccc2)n1C`, the T/C reads like this: (dose: 100.0 mg/kg/injection, schedule: Q04DX003 (ip), vehicle: Klucel (hydroxypropylcellulose) (HPC)) 100 % of control; (dose: 200.0 mg/kg/injection, schedule: Q04DX003 (ip), vehicle: Klucel (hydroxypropylcellulose) (HPC)) 100 % of control; (dose: 400.0 mg/kg/injection, schedule: Q04DX003 (ip), vehicle: Klucel (hydroxypropylcellulose) (HPC)) 106 % of control.

For `CC1(C)N=C(N)N=C(N)N1c1ccc(CCCCc2ccc(S(=O)(=O)F)cc2Cl)c(Cl)c1`, the T/C is, setting by setting: (dose: 1.56 mg/kg/injection, schedule: Q01DX009 (ip), vehicle: saline with Tween-80) 120 % of control; (dose: 3.13 mg/kg/injection, schedule: Q01DX009 (ip), vehicle: saline with Tween-80) 120 % of control; under setting [11], 117 % of control; (dose: 6.25 mg/kg/injection, schedule: Q01DX009 (ip), vehicle: saline with Tween-80) 176 % of control; (dose: 9.4 mg/kg/injection, schedule: Q04DX003 (ip), vehicle: saline) 120 % of control; (dose: 12.5 mg/kg/injection, schedule: Q01DX009 (ip), vehicle: saline with Tween-80) 158 % of control and 189 % of control. Besides, the T/C was 119 % of control (dose: 18.75 mg/kg/injection, schedule: Q04DX003 (ip), vehicle: saline); 164 % of control and 200 % of control under setting [1]; 158 % of control under setting [7]; 182 % of control and 189 % of control under setting [2]; 178 % of control under setting [8]; 157 % of control (dose: 89.0 mg/kg/injection, schedule: Q04DX003 (ip), vehicle: saline with Tween-80). Moreover, the T/C by setting is: under setting [3], 197 % of control; (dose: 133.0 mg/kg/injection, schedule: Q04DX003 (ip), vehicle: saline with Tween-80) 95 % of control; (dose: 150.0 mg/kg/injection, schedule: Q04DX003 (ip), vehicle: saline) 160 % of control.

Regarding `NCCC(=O)OC1CCCc2c(O)c3c(c(O)c21)C(=O)c1ccccc1C3=O` (stereo not given), the T/C under setting [12] is 96 % of control, the T/C under setting [7] is 100 % of control and the T/C under setting [8] is 93 % of control.

For `O=C(NCCCN1CCOCC1)C(Oc1ccccc1)Oc1ccccc1`, the T/C reads like this: (dose: 0.09 mg/kg/injection, schedule: Q01DX009 (ip), vehicle: Klucel (hydroxypropylcellulose) (HPC)) 88 % of control; (dose: 0.19 mg/kg/injection, schedule: Q01DX009 (ip), vehicle: Klucel (hydroxypropylcellulose) (HPC)) 92 % of control; (dose: 0.78 mg/kg/injection, schedule: Q01DX009 (ip), vehicle: Klucel (hydroxypropylcellulose) (HPC)) 87 % of control; (dose: 1.56 mg/kg/injection, schedule: Q01DX009 (ip), vehicle: Klucel (hydroxypropylcellulose) (HPC)) 88 % of control; (dose: 12.5 mg/kg/injection, schedule: Q01DX009 (ip), vehicle: Klucel (hydroxypropylcellulose) (HPC)) 92 % of control; (dose: 25.0 mg/kg/injection, schedule: Q01DX009 (ip), vehicle: Klucel (hydroxypropylcellulose) (HPC)) 86 % of control and 103 % of control. Besides, the T/C under setting [10] is 90 % of control.

Consider `[Cl][Pt+2][Cl].[NH-]CCO.[NH-]CCO`, for which the T/C is 100 % of control under setting [11]; 104 % of control (dose: 6.25 mg/kg/injection, schedule: Q01DX009 (ip), vehicle: saline); 104 % of control under setting [12].

In the case of `NS(=O)(=O)OCCCCCCCOS(N)(=O)=O`, the T/C is 150 % of control under setting [1] and 181 % of control under setting [2].

Take `CCN1C=C/C(=C/c2cc3scc(-c4ccccc4)[n+]3c3ccccc23)c2ccccc21`: the T/C (dose: 0.08 mg/kg/injection, schedule: Q01DX009 (ip), vehicle: saline) was 94 % of control; the T/C (dose: 0.15 mg/kg/injection, schedule: Q01DX009 (ip), vehicle: saline) was 94 % of control; the T/C (dose: 0.3 mg/kg/injection, schedule: Q01DX009 (ip), vehicle: saline) is 90 % of control; the T/C (dose: 75.0 micrograms/kg/injection, schedule: Q01DX009 (ip), vehicle: Klucel (hydroxypropylcellulose) (HPC)) was 103 % of control; the T/C (dose: 150.0 micrograms/kg/injection, schedule: Q01DX009 (ip), vehicle: Klucel (hydroxypropylcellulose) (HPC)) is 107 % of control; the T/C (dose: 300.0 micrograms/kg/injection, schedule: Q01DX009 (ip), vehicle: Klucel (hydroxypropylcellulose) (HPC)) is 98 % of control. Besides, the T/C (dose: 600.0 micrograms/kg/injection, schedule: Q01DX009 (ip), vehicle: Klucel (hydroxypropylcellulose) (HPC)) is 95 % of control.

As for `Cc1cc2c(cc1C)C(=O)c1ccccc1C2=O`, the T/C by setting is: under setting [7], 91 % of control; under setting [8], 97 % of control; under setting [9], 94 % of control.
